# Activity calls are given as the source filed them. The calls are words filed in the database; no cut-off is given here.
# Columns and labels:
# HeLa [1] = test: Induction of apoptosis in human HeLa cells assessed as viable cells at 2.68 uM after 48 hrs by annexin V-FITC/propidium iodide staining-based flow cytometry ( Rvb = 95.4%); assay type: functional; conditions: read-out: Activity
# HeLa [2] = test: Induction of apoptosis in human HeLa cells assessed as dead cells at 2.68 uM after 48 hrs by annexin V-FITC/propidium iodide staining-based flow cytometry ( Rvb = 0.067%); assay type: functional
# HeLa [3] = test: Induction of apoptosis in human HeLa cells assessed as cell shrinkage at 0.67 to 1.34 uM after 48 hrs by Hoechst 33258 staining-based fluorescence microscopy; assay type: functional
# HeLa [4] = test: Induction of apoptosis in human HeLa cells assessed as nuclear fragmentation at 2.68 uM after 48 hrs by Hoechst 33258 staining-based fluorescence microscopy; assay type: functional, cell-based
# HeLa [5] = test: Induction of apoptosis in human HeLa cells assessed as reduction in adherent cells at 0.67 to 1.34 uM after 48 hrs by Hoechst 33258 staining-based fluorescence microscopy; assay type: functional, cell-based
# HeLa [6] = test: Induction of apoptosis in human HeLa cells assessed as increase in t-Bid level at 2.68 uM after 48 hrs by Western blot method; assay type: functional, cell-based
# HeLa [7] = test: Cytotoxicity against human HeLa cells after 72 hrs by MTT assay; assay type: functional, cell-based
# HeLa [8] = test: Induction of apoptosis in human HeLa cells assessed as viable cells at 1.34 uM after 48 hrs by annexin V-FITC/propidium iodide staining-based flow cytometry ( Rvb = 95.4%); assay type: functional; conditions: read-out: Activity
# HeLa [9] = test: Induction of apoptosis in human HeLa cells assessed as late apoptotic cells at 1.34 uM after 48 hrs by annexin V-FITC/propidium iodide staining-based flow cytometry ( Rvb = 1.28%); assay type: functional
# HeLa [10] = test: Induction of apoptosis in human HeLa cells assessed as increase in cleaved caspase-8 level at 2.68 uM after 48 hrs by Western blot method; assay type: functional, cell-based
# HeLa [11] = test: Induction of apoptosis in human HeLa cells assessed as increase in Bax to Bcl2 ratio at 0.67 to 2.68 uM after 48 hrs by Western blot method; assay type: functional, cell-based
# HeLa [12] = test: Induction of apoptosis in human HeLa cells assessed as late apoptotic cells at 0.67 uM after 48 hrs by annexin V-FITC/propidium iodide staining-based flow cytometry ( Rvb = 1.28%); assay type: functional
# HeLa [13] = test: Induction of cell cycle arrest in human HeLa cells assessed as accumulation at G0/G1 phase at 1.34 uM after 48 hrs by propidium iodide staining-based flow cytometry (reference value: 54.05%); assay type: functional
# HeLa [14] = test: Induction of apoptosis in human HeLa cells assessed as dead cells at 0.67 uM after 48 hrs by annexin V-FITC/propidium iodide staining-based flow cytometry ( Rvb = 0.067%); assay type: functional
# HeLa [15] = test: Induction of apoptosis in human HeLa cells assessed as dead cells at 1.34 uM after 48 hrs by annexin V-FITC/propidium iodide staining-based flow cytometry ( Rvb = 0.067%); assay type: functional
# HeLa [16] = test: Induction of apoptosis in human HeLa cells assessed as upregulation of Bax level after 48 hrs by Western blot method; assay type: functional, cell-based
# Jurkat = test: Cytotoxicity against human Jurkat cells after 72 hrs by XTT assay; assay type: functional, cell-based
# BJ = test: Cytotoxicity against human BJ cells after 72 hrs by MTT assay; assay type: cell-based; conditions: Homo sapiens, BJ
# HeLa [17] = test: Downregulation of cyclin D3 level in human HeLa cells after 48 hrs by Western blot method; assay type: functional, cell-based
# HeLa [18] = test: Induction of cell cycle arrest in human HeLa cells assessed as accumulation at subG0/G1 phase at 2.68 uM after 48 hrs by propidium iodide staining-based flow cytometry; assay type: functional
# HeLa [19] = test: Potency index, ratio of asiatic acid IC50 to compound IC50 for human HeLa cells; assay type: functional
# HeLa [20] = test: Induction of apoptosis in human HeLa cells assessed as rupture of cell membrane at 2.68 uM after 48 hrs by Hoechst 33258 staining-based fluorescence microscopy; assay type: functional
# HeLa [21] = test: Induction of cell cycle arrest in human HeLa cells assessed as accumulation at G0/G1 phase at 1.34 uM after 24 hrs by propidium iodide staining-based flow cytometry (reference value: 51.41%); assay type: functional
# MCF7 = test: Cytotoxicity against human MCF7 cells after 72 hrs by MTT assay; assay type: functional, cell-based
# HeLa [22] = test: Upregulation of p21 cip1/waf1 level in human HeLa cells at 1.34 to 2.68 uM after 48 hrs by Western blot method; assay type: functional, cell-based
# A-375 = test: Cytotoxicity against human A375 cells after 72 hrs by MTT assay; assay type: functional, cell-based
# HeLa [23] = test: Induction of cell cycle arrest in human HeLa cells assessed as accumulation at S phase at 2.68 uM after 24 hrs by propidium iodide staining-based flow cytometry (reference value: 35.72%); assay type: functional
# HeLa [24] = test: Induction of apoptosis in human HeLa cells assessed as increase in cleaved PARP level at 2.68 uM after 48 hrs by Western blot method; assay type: functional, cell-based
# HeLa [25] = test: Induction of cell cycle arrest in human HeLa cells assessed as accumulation at G0/G1 phase at 2.68 uM after 24 hrs by propidium iodide staining-based flow cytometry (reference value: 51.41%); assay type: functional
# HeLa [26] = test: Induction of apoptosis in human HeLa cells assessed as early apoptotic cells at 1.34 uM after 48 hrs by annexin V-FITC/propidium iodide staining-based flow cytometry ( Rvb = 3.24%); assay type: functional
# HeLa [27] = test: Induction of apoptosis in human HeLa cells assessed as early apoptotic cells at 0.67 uM after 48 hrs by annexin V-FITC/propidium iodide staining-based flow cytometry ( Rvb = 3.24%); assay type: functional
# HeLa [28] = test: Downregulation of cyclin E level in human HeLa cells at 0.67 to 2.68 uM after 48 hrs by Western blot method; assay type: functional, cell-based
# HeLa [29] = test: Induction of apoptosis in human HeLa cells assessed as increase in cleaved caspase-3 level at 2.68 uM after 48 hrs by Western blot method; assay type: functional, cell-based
# HeLa [30] = test: Induction of apoptosis in human HeLa cells assessed as late apoptotic cells at 2.68 uM after 48 hrs by annexin V-FITC/propidium iodide staining-based flow cytometry ( Rvb = 1.28%); assay type: functional
# HT-29 = test: Cytotoxicity against human HT-29 cells after 72 hrs by MTT assay; assay type: functional, cell-based; conditions: HT-29, 72 h
# HeLa [31] = test: Induction of cell cycle arrest in human HeLa cells assessed as accumulation at S phase at 1.34 uM after 24 hrs by propidium iodide staining-based flow cytometry (reference value: 35.72%); assay type: functional
# HeLa [32] = test: Upregulation of p27 kip1 level in human HeLa cells at 1.34 to 2.68 uM after 48 hrs by Western blot method; assay type: functional, cell-based
# HeLa [33] = test: Potency index, ratio of cisplatin IC50 to compound IC50 for human HeLa cells; assay type: functional
# HeLa [34] = test: Induction of apoptosis in human HeLa cells assessed as downregulation of Bcl2 level after 48 hrs by Western blot method; assay type: functional, cell-based
# HeLa [35] = test: Induction of apoptosis in human HeLa cells assessed as viable cells at 0.67 uM after 48 hrs by annexin V-FITC/propidium iodide staining-based flow cytometry ( Rvb = 95.4%); assay type: functional; conditions: read-out: Activity
# PC-3 = test: (§1) Cytotoxicity against human PC3 cells after 72 hrs by MTT assay; assay type: functional, cell-based
# [36] = as §1; assay type: functional, cell-based; conditions: PC-3, 72 h
# MIA PaCa-2 = test: (§2) Cytotoxicity against human MIAPaCa2 cells after 72 hrs by MTT assay; assay type: functional, cell-based
# [37] = as §2; assay type: functional, cell-based; conditions: MIA PaCa-2, 72 h
# HeLa [38] = test: Induction of apoptosis in human HeLa cells assessed as early apoptotic cells at 2.68 uM after 48 hrs by annexin V-FITC/propidium iodide staining-based flow cytometry ( Rvb = 3.24%); assay type: functional
# HeLa [39] = test: Induction of apoptosis in human HeLa cells assessed as chromatin condensation at 0.67 to 1.34 uM after 48 hrs by Hoechst 33258 staining-based fluorescence microscopy; assay type: functional, cell-based
smiles,measurement,setting,value
C[C@H]1[C@H](C)CC[C@@]23CC[C@]4(C)[C@](OC2=O)([C@H](F)C[C@@H]2[C@@]5(C)C(C=O)=C[C@@](C)(COC(=O)/C=C/c6ccccc6)[C@@H]5CC[C@]24C)[C@H]13,viability at 2.68 µM,HeLa [1],62.4%
same,Activity,HeLa [2],2.86%
same,Activity,HeLa [3],Active
same,Activity,HeLa [4],Active
same,Activity,HeLa [5],Active
same,Activity,HeLa [6],Active
same,IC50,HeLa [7],670 nM
same,viability at 1.34 µM,HeLa [8],92%
same,Activity,HeLa [9],2.6%
same,Activity,HeLa [10],Active
same,Activity,HeLa [11],Active
same,Activity,HeLa [12],1.23%
same,Activity,HeLa [13],76.03%
same,Activity,HeLa [14],0.193%
same,Activity,HeLa [15],0.172%
same,Activity,HeLa [16],Dose-dependent effect
same,Activity,Jurkat,Dose-dependent effect
same,IC50,Jurkat,680 nM
same,IC50,BJ,1940 nM
same,Activity,HeLa [17],Dose-dependent effect
same,Activity,HeLa [18],11.39%
same,Ratio IC50,HeLa [19],79
same,Activity,HeLa [20],Active
same,Activity,HeLa [21],67.26%
same,Activity,MCF7,Dose-dependent effect
same,IC50,"MCF7; MCF7, 72 h",840 nM
same,Activity,HeLa [22],Active
same,Activity,A-375,Dose-dependent effect
same,IC50,"A-375; A-375, 72 h",720 nM
same,Activity,HeLa [23],11.05%
same,Activity,HeLa [24],Active
same,Activity,HeLa [25],72.72%
same,Activity,HeLa [26],5.25%
same,Activity,HeLa [27],3.65%
same,Activity,HeLa [28],Active
same,Activity,HeLa [29],Active
same,Activity,HeLa [30],22.6%
same,IC50,HT-29,710 nM
same,Activity,HeLa [31],22.55%
same,Activity,HeLa [32],Active
same,Ratio IC50,HeLa [33],3.5
same,Activity,HeLa [34],Dose-dependent effect
same,viability at 0.67 µM,HeLa [35],94.7%
same,Activity,PC-3,Dose-dependent effect
same,IC50,[36],740 nM
same,Activity,MIA PaCa-2,Dose-dependent effect
same,IC50,[37],1130 nM
same,Activity,HeLa [38],12.1%
same,Activity,HeLa [39],Active

# — ChEMBL document CHEMBL3784916, “Synthesis and anticancer activity of novel fluorinated asiatic acid derivatives” (Eur J Med Chem, 2016)
